Test results taken from PubChem BioAssay (NCI).
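The compound was tested at five concentrations on cells cultured in 96-well plates, with a 48-hour exposure period. At the GI50, growth is halved. TGI: total growth inhibition.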

Experiments:
Test in all cases: NCI tumour cell line growth inhibition, 48 h
[1] = system: HCT-15 colon
[2] = system: SN12C renal
[3] = system: SW-620 colon
[4] = system: NCI-H522 lung
[5] = system: MOLT-4 leukemia
[6] = system: SK-MEL-28 melanoma
[7] = system: UACC-257 melanoma
[8] = system: NCI-H460 lung
[9] = system: MDA-MB-231 breast
[10] = system: NCI/ADR-RES ovarian

Structure (SMILES)	TGI [1] [µM]	TGI [2] [µM]	TGI [3] [µM]	TGI [4] [µM]	TGI [5] [µM]	TGI [6] [µM]	TGI [7] [µM]	TGI [8] [µM]	TGI [9] [µM]	GI50 [10] [µM]	TGI [10] [µM]	GI50 [1] [µM]	GI50 [3] [µM]	GI50 [4] [µM]	GI50 [9] [µM]	GI50 [6] [µM]	GI50 [8] [µM]
CCOP(=O)(OCC)C(C(=O)OC)C(=O)C(=O)Nc1ccc(Cl)cc1Cl (stereo not given)	> 100	> 100	> 100	> 100	> 100	> 100	> 100	> 100	–	–	–	–	–	–	–	–	–
Cc1cc2c(c(C(N)=O)c1C)-c1ccccc1C2=O	> 100	> 100	> 100	> 100	> 100	> 100	> 100	> 100	–	–	–	–	–	–	–	–	–
COC(=O)/C([Se]c1c(C)cc(C)cc1C)=C(/[Se]c1c(C)cc(C)cc1C)C(=O)OC	> 100	> 100	> 100	> 100	> 100	–	> 100	> 100	–	–	–	–	–	–	–	–	–
CCOC(=O)NC(=O)c1cn(C2CCCCC2)c(=O)[nH]c1=O	> 100	> 100	> 100	> 100	> 100	> 100	> 100	> 100	–	–	–	–	–	–	–	–	–
CC(=O)N1CCN(c2ccc(OCC3COC(Cn4ccnc4)(c4ccc(Cl)cc4Cl)O3)cc2)CC1 (stereo not given)	> 100	> 100	> 100	99.7	> 100	> 100	51.1	> 100	–	–	–	–	–	–	–	–	–
CCCC(=O)C1=C(O)C(Cc2c(O)c(C)c(O)c(C(=O)CCC)c2O)=C(O)C(C)(C)C1=O	> 50	> 50	> 50	–	36.3	> 50	> 50	43.1	> 50	–	–	–	–	–	–	–	–
O=C(O)c1cccc(COc2ccc([N+](=O)[O-])cc2Cl)c1	> 100	–	> 100	93	–	> 100	–	> 100	> 100	> 100	> 100	> 100	> 100	18.4	> 100	> 100	> 100
COc1c(C)n(CCO)ccc1=O	> 100	> 100	> 100	> 100	> 100	> 100	> 100	> 100	–	–	–	–	–	–	–	–	–
COc1ccc(CC2c3c(cc(OC)c(OC)c3OC)CCN2C)cc1OC (stereo not given)	> 100	> 100	> 100	> 100	> 100	> 100	> 100	> 100	–	–	–	–	–	–	–	–	–
Cc1[nH]c2ccccc2c1C1Cc2ccccc2N1C(=O)C#Cc1ccc([N+](=O)[O-])cc1 (stereo not given)	–	> 100	> 100	–	> 100	> 100	> 100	> 100	–	–	–	–	–	–	–	–	–
O=C(N/C(=C\c1ccc([N+](=O)[O-])cc1)c1nc2ccccc2[nH]1)c1ccccc1	> 100	> 100	> 100	> 100	> 100	> 100	> 100	> 100	–	–	–	–	–	–	–	–	–
COC(=O)C1C(O)C(C(=O)OC)C(C)N(C)C1C (stereo not given)	> 100	> 100	> 100	–	> 100	> 100	> 100	> 100	> 100	–	> 100	–	–	–	–	–	–
